Source: ChEMBL document CHEMBL1909046, “DrugMatrix in vitro pharmacology data”

Experiments:
[1] = DRUGMATRIX: Potassium Channel [KATP] radioligand binding (ligand: [3H] Glyburide); assay type: cell membranes, Membrane; conditions: hit-t15; Not Active = under 50% inhibition at 10 µM
[2] = target: Matrix metalloproteinase-9 (Homo sapiens, UniProt P14780); test: biochemical; assay type: cell-based;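 also: inhibition of isolated MMP-9 enzyme activity toward a synthetic peptide substrate, from the DrugMatrix protease screening panel; in other assays of this panel Not Active means under 50% inhibition at 10 µM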
Chain of Matrix metalloproteinase-9 (P14780 whole entry): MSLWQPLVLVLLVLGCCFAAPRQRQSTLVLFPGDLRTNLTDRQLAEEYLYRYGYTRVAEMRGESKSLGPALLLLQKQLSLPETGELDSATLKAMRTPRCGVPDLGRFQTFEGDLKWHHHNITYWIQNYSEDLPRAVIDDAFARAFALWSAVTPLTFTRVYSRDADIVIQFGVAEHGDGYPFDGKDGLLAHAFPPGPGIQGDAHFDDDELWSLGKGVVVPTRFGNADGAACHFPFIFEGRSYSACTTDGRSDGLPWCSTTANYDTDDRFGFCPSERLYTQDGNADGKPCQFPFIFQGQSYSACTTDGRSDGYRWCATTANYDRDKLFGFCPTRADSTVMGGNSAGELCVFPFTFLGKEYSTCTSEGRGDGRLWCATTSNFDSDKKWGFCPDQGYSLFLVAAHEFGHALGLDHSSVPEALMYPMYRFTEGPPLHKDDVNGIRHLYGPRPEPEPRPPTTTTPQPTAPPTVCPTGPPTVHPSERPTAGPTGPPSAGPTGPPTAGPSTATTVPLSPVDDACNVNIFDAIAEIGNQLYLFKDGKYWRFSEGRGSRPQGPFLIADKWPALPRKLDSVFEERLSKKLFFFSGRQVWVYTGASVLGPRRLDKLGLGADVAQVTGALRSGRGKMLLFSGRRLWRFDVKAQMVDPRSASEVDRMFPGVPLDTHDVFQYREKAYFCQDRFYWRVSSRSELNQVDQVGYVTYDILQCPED

Glycine receptor = Glycine receptor (Rattus norvegicus, UniProt P22771+P24524+P07727+P20781); assay type: cell membranes, Wistar, Spinal cord, Membrane; also: in other assays of this panel Not Active means under 50% inhibition at 10 µM
[3] = target: T1, C-X-C chemokine receptor type 1 (Homo sapiens, UniProt P25024); also: in other assays of this panel Not Active means under 50% inhibition at 10 µM
T1 sequence (P25024 whole entry): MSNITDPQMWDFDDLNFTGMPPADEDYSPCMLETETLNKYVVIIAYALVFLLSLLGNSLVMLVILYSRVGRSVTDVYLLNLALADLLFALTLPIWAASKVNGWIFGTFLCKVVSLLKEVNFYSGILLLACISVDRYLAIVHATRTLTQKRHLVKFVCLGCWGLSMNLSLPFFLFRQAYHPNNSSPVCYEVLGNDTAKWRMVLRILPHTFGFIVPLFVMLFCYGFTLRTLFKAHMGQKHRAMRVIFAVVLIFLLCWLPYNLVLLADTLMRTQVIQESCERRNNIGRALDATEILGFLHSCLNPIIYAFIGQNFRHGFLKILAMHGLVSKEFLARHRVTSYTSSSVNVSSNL

Cytochrome P450 2A6 = target: T2, Cytochrome P450 2A6 (Homo sapiens, UniProt P11509); conditions: bti-tn-5b1-4; also: in other assays of this panel Not Active means under 50% inhibition at 10 µM
T2 sequence (P11509 whole entry): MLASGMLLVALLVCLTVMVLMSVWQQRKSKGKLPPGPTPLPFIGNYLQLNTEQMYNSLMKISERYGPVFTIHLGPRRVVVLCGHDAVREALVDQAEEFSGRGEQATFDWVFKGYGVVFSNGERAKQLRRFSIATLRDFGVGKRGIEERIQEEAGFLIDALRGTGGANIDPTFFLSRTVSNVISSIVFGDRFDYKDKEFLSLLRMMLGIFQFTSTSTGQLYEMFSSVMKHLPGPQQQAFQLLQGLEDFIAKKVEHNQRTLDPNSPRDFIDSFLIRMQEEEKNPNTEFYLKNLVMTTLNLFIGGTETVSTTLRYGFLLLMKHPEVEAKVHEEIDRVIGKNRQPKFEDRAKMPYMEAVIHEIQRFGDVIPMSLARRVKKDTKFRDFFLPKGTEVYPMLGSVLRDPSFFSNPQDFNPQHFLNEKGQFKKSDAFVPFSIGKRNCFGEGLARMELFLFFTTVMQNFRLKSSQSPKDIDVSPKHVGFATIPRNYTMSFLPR

[4] = DRUGMATRIX: GABAA, Muscimol, Central radioligand binding (ligand: [3H] Muscimol); assay type: cell membranes, Rattus norvegicus, Wistar, Brain, Membrane; conditions: Not Active = under 50% inhibition at 10 µM
[5] = target: Voltage-gated inwardly rectifying potassium channel KCNH2 (Homo sapiens, UniProt Q12809); conditions: hek293; also: in other assays of this panel Not Active means under 50% inhibition at 10 µM
Chain of Voltage-gated inwardly rectifying potassium channel KCNH2 (Q12809 whole entry): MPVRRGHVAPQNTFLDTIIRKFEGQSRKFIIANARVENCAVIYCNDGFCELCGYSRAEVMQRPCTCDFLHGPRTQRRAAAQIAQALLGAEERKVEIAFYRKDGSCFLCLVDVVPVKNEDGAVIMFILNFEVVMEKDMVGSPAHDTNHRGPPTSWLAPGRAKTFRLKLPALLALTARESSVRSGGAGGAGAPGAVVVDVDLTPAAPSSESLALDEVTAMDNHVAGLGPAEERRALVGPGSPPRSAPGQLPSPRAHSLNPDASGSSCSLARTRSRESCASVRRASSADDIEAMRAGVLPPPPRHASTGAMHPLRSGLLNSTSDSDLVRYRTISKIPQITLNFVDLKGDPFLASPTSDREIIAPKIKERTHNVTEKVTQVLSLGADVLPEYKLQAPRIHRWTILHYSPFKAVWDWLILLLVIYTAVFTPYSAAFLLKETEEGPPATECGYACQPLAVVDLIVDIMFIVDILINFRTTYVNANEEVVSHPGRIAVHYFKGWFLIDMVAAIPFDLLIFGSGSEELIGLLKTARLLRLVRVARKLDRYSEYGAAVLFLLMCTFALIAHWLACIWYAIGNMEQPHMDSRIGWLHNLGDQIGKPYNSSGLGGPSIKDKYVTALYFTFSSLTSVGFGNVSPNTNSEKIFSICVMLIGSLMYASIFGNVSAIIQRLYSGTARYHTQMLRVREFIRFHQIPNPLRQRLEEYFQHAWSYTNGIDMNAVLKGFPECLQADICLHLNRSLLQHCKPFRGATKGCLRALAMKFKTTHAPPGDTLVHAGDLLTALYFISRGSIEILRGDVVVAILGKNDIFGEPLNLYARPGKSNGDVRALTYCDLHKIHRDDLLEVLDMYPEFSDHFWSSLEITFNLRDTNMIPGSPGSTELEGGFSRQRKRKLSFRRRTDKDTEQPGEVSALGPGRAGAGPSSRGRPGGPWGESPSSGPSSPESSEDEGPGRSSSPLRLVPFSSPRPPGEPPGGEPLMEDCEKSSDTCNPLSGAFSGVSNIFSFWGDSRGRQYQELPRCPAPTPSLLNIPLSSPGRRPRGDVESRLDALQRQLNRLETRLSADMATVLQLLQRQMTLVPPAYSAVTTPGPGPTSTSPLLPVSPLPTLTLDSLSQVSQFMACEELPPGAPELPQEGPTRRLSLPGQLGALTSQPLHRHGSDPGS

CC(C)(C)c1ccc(S(=O)(=O)/C=C/C#N)cc1 [BAY-11-7085]
Not Active: IC50 [1] | Ki [1] | IC50 [2] | IC50 (Glycine receptor) | IC50 [3] | IC50 (Cytochrome P450 2A6) | Ki (Cytochrome P450 2A6) | IC50 [4] | Ki [4] | IC50 [5] | Ki [5]

O=C(c1ccccc1Cl)N1CCC(Cc2ccccc2)CC1
Not Active: IC50 [1] | Ki [1] | IC50 [2] | IC50 (Glycine receptor) | IC50 [3] | IC50 (Cytochrome P450 2A6) | Ki (Cytochrome P450 2A6) | IC50 [4] | Ki [4] | IC50 [5] | Ki [5]

CCOC(=O)[C@H](CCc1ccccc1)N[C@@H](C)C(=O)N1Cc2ccccc2C[C@H]1C(=O)O
Not Active: IC50 [1] | Ki [1] | IC50 [2] | IC50 (Glycine receptor) | IC50 [3] | IC50 (Cytochrome P450 2A6) | Ki (Cytochrome P450 2A6) | IC50 [4] | Ki [4] | IC50 [5] | Ki [5]

CC[C@H]1OC(=O)[C@H](C)[C@@H](O[C@H]2C[C@@](C)(OC)[C@@H](O)[C@H](C)O2)[C@H](C)[C@@H](O[C@@H]2O[C@H](C)C[C@H](N(C)C)[C@H]2O)[C@](C)(O)C[C@@H](C)CN(C)[C@H](C)[C@@H](O)[C@]1(C)O [AZITHROMYCIN]
Not Active: IC50 [1] | Ki [1] | IC50 [2] | IC50 (Glycine receptor) | IC50 [3] | IC50 (Cytochrome P450 2A6) | Ki (Cytochrome P450 2A6) | IC50 [4] | Ki [4] | IC50 [5] | Ki [5]

Cc1cccc(Nc2ccccc2C(=O)O)c1C [MEFENAMIC ACID]
Not Active: IC50 [1] | Ki [1] | IC50 [2] | IC50 (Glycine receptor) | IC50 [3] | IC50 (Cytochrome P450 2A6) | Ki (Cytochrome P450 2A6) | IC50 [4] | Ki [4] | IC50 [5] | Ki [5]

COC(=O)c1ccccc1O [METHYL SALICYLATE]
Not Active: IC50 [1] | Ki [1] | IC50 [2] | IC50 (Glycine receptor) | IC50 [3] | IC50 (Cytochrome P450 2A6) | Ki (Cytochrome P450 2A6) | IC50 [4] | Ki [4] | IC50 [5] | Ki [5]

CC[C@H](C)C(=O)O[C@H]1C[C@H](O)C=C2C=C[C@H](C)[C@H](CC[C@@H](O)C[C@@H](O)CC(=O)O)[C@H]21 [PRAVASTATIN]
Not Active: IC50 [1] | Ki [1] | IC50 [2] | IC50 (Glycine receptor) | IC50 [3] | IC50 (Cytochrome P450 2A6) | Ki (Cytochrome P450 2A6) | IC50 [4] | Ki [4] | IC50 [5] | Ki [5]

C[C@]12C/C(=C/O)C(=O)C[C@@H]1CC[C@@H]1[C@@H]2CC[C@@]2(C)[C@H]1CC[C@]2(C)O [OXYMETHOLONE]
Not Active: IC50 [1] | Ki [1] | IC50 [2] | IC50 (Glycine receptor) | IC50 [3] | IC50 (Cytochrome P450 2A6) | Ki (Cytochrome P450 2A6) | IC50 [4] | Ki [4] | IC50 [5] | Ki [5]

Clc1cc2c(cc1Cl)Oc1cc(Cl)c(Cl)cc1O2 [2,3,7,8-TETRACHLORODIBENZO-P-DIOXIN]
Not Active: IC50 [1] | Ki [1] | IC50 [2] | IC50 (Glycine receptor) | IC50 [3] | IC50 (Cytochrome P450 2A6) | Ki (Cytochrome P450 2A6) | IC50 [4] | Ki [4] | IC50 [5] | Ki [5]
